Experimental data as given in US20090005361A1, “Combination of Organic Compounds” (priority 2006, published 2009).

How the values were obtained:
Assay type in all cases: biochemical
[1] = target: T1, dog renin (Canis lupus familiaris, UniProt Q6DYE7); experiment: renin inhibition, species specificity (dog renin); conditions: stated in words, compared with human renin
T1 sequence (Q6DYE7 66-403): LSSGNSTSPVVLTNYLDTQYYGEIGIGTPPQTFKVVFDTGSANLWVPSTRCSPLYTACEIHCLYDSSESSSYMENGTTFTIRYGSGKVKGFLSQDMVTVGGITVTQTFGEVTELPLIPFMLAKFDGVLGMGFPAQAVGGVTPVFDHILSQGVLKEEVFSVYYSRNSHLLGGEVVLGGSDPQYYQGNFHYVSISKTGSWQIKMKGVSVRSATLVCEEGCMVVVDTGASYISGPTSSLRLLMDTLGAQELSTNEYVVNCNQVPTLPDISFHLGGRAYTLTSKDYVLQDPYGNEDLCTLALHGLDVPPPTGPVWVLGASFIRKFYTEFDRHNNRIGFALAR

[2] = tested on: mouse renin; experiment: renin inhibition, species specificity (mouse renin); conditions: stated in words, compared with human renin
[3] = target: T2, rat renin (Rattus norvegicus, UniProt P08424); experiment: renin inhibition, species specificity (rat renin); conditions: relative potency loss against rat renin
T2 sequence (P08424 65-402): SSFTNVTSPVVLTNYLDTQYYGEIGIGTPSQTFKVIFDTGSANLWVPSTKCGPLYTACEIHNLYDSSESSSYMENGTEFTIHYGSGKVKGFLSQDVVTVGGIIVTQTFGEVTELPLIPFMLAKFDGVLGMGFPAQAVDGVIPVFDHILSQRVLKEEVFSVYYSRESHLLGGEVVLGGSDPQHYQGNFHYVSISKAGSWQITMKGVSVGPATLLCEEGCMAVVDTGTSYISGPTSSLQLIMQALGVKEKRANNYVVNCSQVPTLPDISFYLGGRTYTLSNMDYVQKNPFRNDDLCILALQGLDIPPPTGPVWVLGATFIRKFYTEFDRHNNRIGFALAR

**Q.** For COCCCOc1cc(C[C@@H](C[C@H](N)[C@@H](O)C[C@H](C(=O)NCC(C)(C)C(N)=O)C(C)C)C(C)C)ccc1OC [aliskiren, 2(S),4(S),5(S),7(S)-N-(3-amino-2,2-dimethyl-3-oxopropyl)-2,7-di(1-methylethyl)-4-hydroxy-5-amino-8-[4-methoxy-3-(3-methoxy-propoxy)phenyl]-octanamide], which “potency against dog renin” value [1] is on record?
**A.** Its value is “reasonable potency”.

**Q.** And the “potency against mouse renin” value [2]?
**A.** Its value is “reasonable potency”.

**Q.** What about the “weaker as a rat renin inhibitor” value [3] of the same compound?
**A.** Its value is 1-2 orders of magnitude.
